The subject of one assay is Plasmopara viticola. In words: Antisporulant activity against vine downy mildew (PVA). It counts as in vivo. The note with it: vine leaves, antisporulant foliar spray, 600 ppm, 750 l/ha. The essentials:
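Cabernet Sauvignon vines (~8 cm) inoculated on lower leaf surfaces with 5×10^4 zoosporangia/ml, held 24 h at 21° C high humidity then 24 h glasshouse. Infected leaves sprayed underside with 600 ppm compound in 1:1 water/acetone, 0.04% Tween 20, 750 l/ha; 96 h glasshouse, 24 h humidity. Sporulating leaf area rated versus control.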

The next assay concerns Alternaria solani. In words: Activity against tomato early blight (AS). The class given is in vivo. Particulars: Table VI; tomato seedlings, contact prophylactic foliar spray, 4 days. A digest of the protocol: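 Plants were challenged with A. solani conidia (10^4 spores/ml) 24 h after a protective foliar spray of compound in 50:50 acetone/water plus 0.04% Tween 20. Held humid at 21° C for 4 days, then percent leaf area with lesions was scored as a rating relative to controls.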

The next assay deals with Botrytis cinerea. In words: Direct protectant activity against broad bean grey mould (BCB). Particulars: direct protectant foliar spray, 600 ppm, 4 days. It counts as in vivo. A digest of the protocol:
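Protectant foliar test: lesion coverage assessed 4 days after inoculation and rated relative to untreated or diluent-sprayed plants. Compound applied at 600 ppm to cv The Sutton leaves 24 h before 10^6 conidia/ml suspension; incubation at 22 °C in high humidity.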

In another assay the test system is Leptosphaeria nodorum. The assay can be described thus: Activity against wheat leafspot (LN). The class given is in vivo. Particulars: direct therapeutic foliar spray, 600 ppm, 6-8 days. The essentials:
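Therapeutic foliar spray: compound at 600 ppm applied to single-leaf wheat (cv Norman) 24 h after inoculation with 1.5×10^6 conidia/ml. Disease control scored after 6-8 days at 22° C and 70% humidity as lesions per leaf versus untreated or diluent-sprayed controls.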

Assay [1] has as its system Erysiphe graminis f.sp. hordei. In words: Activity against barley powdery mildew, direct therapeutic (EGT). The class given is in vivo. The note with it: direct therapeutic foliar spray, 600 ppm, up to 7 days. A digest of the protocol:
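A curative spray at 600 ppm was applied to single-leaf Golden Promise barley inoculated with powdery mildew conidia the previous day. After up to 7 days at 18 °C and 40% humidity, disease control was rated from percent leaf area sporulating relative to untreated or diluent-sprayed controls.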

In assay [2] the test system is Erysiphe graminis f.sp. hordei. The assay can be described thus: Direct protectant activity against barley powdery mildew (EGP). Particulars: direct protectant foliar spray, 8 days. The class given is in vivo. A digest of the protocol:
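Rating reflects percentage of leaf area with sporulation compared with untreated or diluent-sprayed controls. Protectant spray was applied to single-leaf barley (cv Golden Promise) 24 h before conidia inoculation. Plants were kept at 18 °C and 40% RH throughout, with 8 days of disease development.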

Another assay deals with Phytophthora infestans. It counts as in vivo. Particulars: tomato, direct protectant foliar spray.
Assay [3] relates to Pseudocercosporella herpotrichoides. In words: Activity against wheat eyespot in-vitro (PHI). It counts as cell-based. Particulars: 10 ppm, 10 days, 20° C., mycelial growth. A digest of the protocol:
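Mycelial growth was scored after 10 days at 20 °C against untreated or diluent controls. The broth was half-strength potato dextrose, holding 10 ppm test compound (from acetone) and 5×10^4 fragments/ml of the eyespot fungus.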

In another assay the test system is Rhizoctonia solani. The assay can be described thus: Activity against Rhizoctonia in-vitro (RSI). Particulars: 10 ppm, 10 days, 20° C., mycelial growth. The class given is cell-based. The essentials: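 Compound at a final 10 ppm (acetone vehicle) in half-strength PDB, inoculated with 5×10^4 fragments/ml of shaken-culture R. solani mycelium. After incubation at 20° C for 10 days, growth scored as a rating versus untreated or diluent-treated controls.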

A further assay has as its system Venturia inaequalis. In words: Activity against apple scab in-vitro (VII). It counts as cell-based. The note with it: 10 ppm, 10 days, 20° C., mycelial growth. The essentials:
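V. inaequalis propagules (5×10^4/ml, malt agar-grown) were exposed in half-strength PDB to 10 ppm final test compound delivered in acetone. Growth was scored after incubation for 10 days at 20° C, as a rating relative to untreated or diluent-sprayed controls.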

The next assay relates to Pyricularia oryzae. The class given is in vivo. Particulars: rice seedlings, direct therapeutic foliar spray, 600 ppm, 4-5 days.

The results in this text go back to US5591741A, “Fungicidal spiroheterocyclic derivatives” (American Cyanamid Company, priority 1993, dated 1997).

Molecules are shown by their SMILES.

With `CCCCCCN(C)C1COC2(CCC(C(C)(C)CC)CC2)C1` (stereo not shown) [Compound 60], the “disease control rating PVA” value in the assay with Plasmopara viticola is listed as 0 (less than 50% disease control). In addition, the “disease control rating AS” value in the assay with Alternaria solani is 0 (less than 50% disease control). The “disease control rating BCB” value with Botrytis cinerea is given as 0 (less than 50% disease control). In addition, the “disease control rating LN” value in the assay on Leptosphaeria nodorum is 1 (about 50-80% disease control). In assay [1], the “disease control rating EGT” value is 2 (greater than 80% disease control). Moreover, in assay [2], the “disease control rating EGP” value is reported as 2 (greater than 80% disease control). Also, in the assay with Phytophthora infestans, the “disease control rating PIP” value is recorded as 0 (less than 50% disease control). In assay [3], the “disease control rating PHI” value is 0 (less than 50% disease control). In addition, in the assay on Rhizoctonia solani, the “disease control rating RSI” value is given as 2 (greater than 80% disease control). Further, the “disease control rating VII” value in the assay with Venturia inaequalis is on record as 1 (about 50-80% disease control). For the same molecule, the “disease control rating PO” value in the assay on Pyricularia oryzae is 0 (less than 50% disease control).

Take `CCCCCCN(C)C1COC2(CCC(c3ccccc3)CC2)C1` (stereo not shown) [Compound 61]: the “disease control rating PVA” value in the assay on Plasmopara viticola is given as 0 (less than 50% disease control). In addition, in the assay on Alternaria solani, the “disease control rating AS” value is reported as 0 (less than 50% disease control). Also, the “disease control rating BCB” value with Botrytis cinerea was 0 (less than 50% disease control). Moreover, in the assay with Leptosphaeria nodorum, the “disease control rating LN” value was 1 (about 50-80% disease control). For the same molecule, in assay [1], the “disease control rating EGT” value was 2 (greater than 80% disease control). Also, the “disease control rating EGP” value in assay [2] was 2 (greater than 80% disease control). In addition, the “disease control rating PIP” value in the assay with Phytophthora infestans is 0 (less than 50% disease control). In addition, in assay [3], the “disease control rating PHI” value is recorded as 2 (greater than 80% disease control). The “disease control rating RSI” value in the assay on Rhizoctonia solani was 0 (less than 50% disease control). Moreover, the “disease control rating VII” value with Venturia inaequalis was 1 (about 50-80% disease control). In the assay with Pyricularia oryzae, the “disease control rating PO” value is on record as 0 (less than 50% disease control).

Turning to `CCCNC1COC2(CCC(C(C)(C)C)CC2)C1` (stereo not shown) [Compound 62], in the assay with Plasmopara viticola, the “disease control rating PVA” value is 0 (less than 50% disease control). Further, the “disease control rating AS” value in the assay on Alternaria solani is recorded as 0 (less than 50% disease control). Further, the “disease control rating BCB” value in the assay with Botrytis cinerea was 1 (about 50-80% disease control). Moreover, the “disease control rating LN” value with Leptosphaeria nodorum is listed as 0 (less than 50% disease control). The “disease control rating EGT” value in assay [1] is recorded as 2 (greater than 80% disease control). In addition, the “disease control rating EGP” value in [2] is recorded as 2 (greater than 80% disease control). Also, in the assay on Phytophthora infestans, the “disease control rating PIP” value is on record as 0 (less than 50% disease control). In addition, in [3], the “disease control rating PHI” value is 0 (less than 50% disease control). For the same molecule, the “disease control rating RSI” value in the assay on Rhizoctonia solani is 0 (less than 50% disease control). In the assay with Venturia inaequalis, the “disease control rating VII” value is reported as 0 (less than 50% disease control). For the same molecule, in the assay with Pyricularia oryzae, the “disease control rating PO” value was 0 (less than 50% disease control).

Regarding `CC(C)NC1COC2(CCC(C(C)(C)C)CC2)C1` (stereo not shown) [Compound 63], the “disease control rating PVA” value in the assay on Plasmopara viticola is listed as 0 (less than 50% disease control). In addition, the “disease control rating AS” value with Alternaria solani is 0 (less than 50% disease control). Also, in the assay on Botrytis cinerea, the “disease control rating BCB” value is on record as 0 (less than 50% disease control). The “disease control rating LN” value with Leptosphaeria nodorum was 0 (less than 50% disease control). Besides, the “disease control rating EGT” value in [1] is recorded as 2 (greater than 80% disease control). In assay [2], the “disease control rating EGP” value is given as 2 (greater than 80% disease control). Moreover, the “disease control rating PIP” value in the assay with Phytophthora infestans is recorded as 0 (less than 50% disease control). In assay [3], the “disease control rating PHI” value was 0 (less than 50% disease control). Moreover, the “disease control rating RSI” value in the assay on Rhizoctonia solani is 0 (less than 50% disease control). The “disease control rating VII” value in the assay on Venturia inaequalis was 0 (less than 50% disease control). In the assay with Pyricularia oryzae, the “disease control rating PO” value is on record as 0 (less than 50% disease control).

As for `CCCCNC1COC2(CCC(C(C)(C)C)CC2)C1` (stereo not shown) [Compound 64], in the assay on Plasmopara viticola, the “disease control rating PVA” value is given as 0 (less than 50% disease control). Besides, in the assay on Alternaria solani, the “disease control rating AS” value is on record as 0 (less than 50% disease control). Besides, in the assay on Botrytis cinerea, the “disease control rating BCB” value is given as 2 (greater than 80% disease control). The “disease control rating LN” value in the assay on Leptosphaeria nodorum is recorded as 0 (less than 50% disease control). Also, the “disease control rating EGT” value in assay [1] is 2 (greater than 80% disease control). Moreover, the “disease control rating EGP” value in assay [2] is 2 (greater than 80% disease control). The “disease control rating PIP” value with Phytophthora infestans is given as 2 (greater than 80% disease control). The “disease control rating PHI” value in [3] is 0 (less than 50% disease control). In the assay with Rhizoctonia solani, the “disease control rating RSI” value is on record as 0 (less than 50% disease control). In the assay with Venturia inaequalis, the “disease control rating VII” value was 0 (less than 50% disease control). Further, in the assay on Pyricularia oryzae, the “disease control rating PO” value is 0 (less than 50% disease control).

Regarding `CCC(C)NC1COC2(CCC(C(C)(C)C)CC2)C1` (stereo not shown) [Compound 65], the “disease control rating PVA” value in the assay on Plasmopara viticola is 0 (less than 50% disease control). Further, the “disease control rating AS” value in the assay with Alternaria solani was 0 (less than 50% disease control). The “disease control rating BCB” value in the assay on Botrytis cinerea was 2 (greater than 80% disease control). For the same molecule, the “disease control rating LN” value in the assay on Leptosphaeria nodorum is recorded as 0 (less than 50% disease control). In assay [1], the “disease control rating EGT” value is 2 (greater than 80% disease control). In addition, the “disease control rating EGP” value in [2] is given as 2 (greater than 80% disease control). For the same molecule, the “disease control rating PIP” value in the assay on Phytophthora infestans was 0 (less than 50% disease control). Besides, the “disease control rating PHI” value in assay [3] is 0 (less than 50% disease control). Moreover, the “disease control rating RSI” value with Rhizoctonia solani is 0 (less than 50% disease control). Besides, the “disease control rating VII” value in the assay on Venturia inaequalis is recorded as 0 (less than 50% disease control). In addition, the “disease control rating PO” value with Pyricularia oryzae is reported as 0 (less than 50% disease control).

Turning to `CC(C)CNC1COC2(CCC(C(C)(C)C)CC2)C1` (stereo not shown) [Compound 66], the “disease control rating PVA” value with Plasmopara viticola is listed as 0 (less than 50% disease control). In addition, the “disease control rating AS” value in the assay with Alternaria solani is given as 0 (less than 50% disease control). Also, the “disease control rating BCB” value in the assay with Botrytis cinerea is given as 2 (greater than 80% disease control). In addition, the “disease control rating LN” value with Leptosphaeria nodorum was 0 (less than 50% disease control). In [1], the “disease control rating EGT” value is listed as 2 (greater than 80% disease control). The “disease control rating EGP” value in assay [2] was 2 (greater than 80% disease control). Moreover, the “disease control rating PIP” value with Phytophthora infestans is listed as 0 (less than 50% disease control). The “disease control rating PHI” value in assay [3] was 0 (less than 50% disease control). The “disease control rating RSI” value in the assay on Rhizoctonia solani was 0 (less than 50% disease control). Further, the “disease control rating VII” value in the assay with Venturia inaequalis was 0 (less than 50% disease control). Besides, the “disease control rating PO” value in the assay with Pyricularia oryzae is given as 0 (less than 50% disease control).

In the case of `CN(C)C1COC2(CCC(C(C)(C)C)CC2)C1` (stereo not shown) [Compound 67], the “disease control rating PVA” value with Plasmopara viticola was 0 (less than 50% disease control). In addition, the “disease control rating AS” value with Alternaria solani was 0 (less than 50% disease control). The “disease control rating BCB” value in the assay with Botrytis cinerea is given as 0 (less than 50% disease control). Also, the “disease control rating LN” value with Leptosphaeria nodorum is reported as 1 (about 50-80% disease control). Moreover, the “disease control rating EGT” value in assay [1] is on record as 2 (greater than 80% disease control). The “disease control rating EGP” value in assay [2] is given as 2 (greater than 80% disease control). The “disease control rating PIP” value in the assay on Phytophthora infestans is reported as 2 (greater than 80% disease control). For the same molecule, in [3], the “disease control rating PHI” value is recorded as 0 (less than 50% disease control). For the same molecule, the “disease control rating RSI” value in the assay with Rhizoctonia solani was 0 (less than 50% disease control). Further, the “disease control rating VII” value in the assay on Venturia inaequalis was 0 (less than 50% disease control). The “disease control rating PO” value in the assay with Pyricularia oryzae is recorded as 1 (about 50-80% disease control).
